Source: patent publication US20030170656A1, “Method of screening for factors that modulate gene expression” (Chiron Corporation, priority 1995, published 2003)

B1: 16.1: 61 amino acid polypeptide of SEQ ID NO. 2, deconvoluted from pool 16.1, capable of inducing c-fos transcription in NIH3T3 cells (protein)
chain: MTLMVFKCSDNLLLIVVYAKVFPSTSCIHYQIYTCKFEVLLFSQHELKIFCNSARQGSSCL

What was measured:
Format in all cases: cell-based
[1] = test system: serum responsive element (SRE)-luciferase construct in FTL cells; assay: SRE-luciferase reporter assay (luciferase assay) in NIH3T3 derived FTL cells; conditions: 4000 cells
Procedure: (§1) A construct comprising in operable linkage a luciferase reporter gene and the serum responsive element (SRE) was stably transfected into NIH3T3 derived FTL cells which were selected as the responsive cells. Plasmid DNAs from small library pools of 100 to 500 independent colonies per pool were constructed and in vitro transcribed into cRNAs. Each pool of cRNAs were injected into Xenopus laevis oocytes and cultured at 18° C. overnight. The next day, each oocyte was then cocultured with FTL cells transfected with the SRE-luciferase construct and incubated at 37° C. for three hours in a microwell. The oocytes were removed and induction of luciferase gene was assayed by luciferase assay, and also by bDNA assay against luciferase mRNA. The luciferase assay was sensitive to 4000 cells with a minimum concentration of 1 nM of PDGFBB (PDGF β chain dimer). The bDNA assay detected a lower concentration of library, with the ability to detect from 4000 cells less than 0.01 nM of PDGFBB.

[2] = test system: c-fos mRNA in NIH3T3 cells; assay: c-fos induction by bDNA assay in NIH3T3 cells (small molecule pool screen with PDGFBB); conditions: bDNA against c-fos mRNA, read-out: concentration giving 50% of maximal c-fos induction
Procedure: Small molecule library pools are prepared as described above, and 48 such pools were marked and divided for screening. An aliquot of each pool (2 μM final concentration) was placed in a micro-well on a bed of NIH3T3 cells in a microwell and incubated at 37° C. for 45 minutes with 1 ηM PDGFBB.
Each well was assayed by induction of c-fos messenger by bDNA assay against c-fos mRNA. In a previous study (described in example 8), a bDNA assay detected induction of c-fos mRNA by less than 0.01 ηM of PDGFBB (PDGF β chain dimer). 1 ηM of PDGFBB gives 50% of maximal c-fos induction. As previously described, administration of PDGFBB to cells, including FTL cells, induces the transcription of the c-fos gene.
In this study, induction or reduction of the c-fos gene was measured by bDNA. Where an agonist was present in the small molecule library pool, c-fos induction was expected to occur at about the same level or greater as induction by administration of PDGFBB. Where an antagonist was present in the small molecule library pool, c-fos transcription was expected to be reduced perhaps to non-detectable levels. […]

[3] = test system: luciferase mRNA (SRE-luciferase construct) in FTL cells; assay: bDNA assay against luciferase mRNA in SRE-luciferase FTL cells; conditions: 4000 cells
Procedure: as §1

c-fos mRNA in FTL cells = assay: bDNA assay against c-fos mRNA in NIH3T3 derived FTL cells
Procedure: To assay for a growth factor that stimulates the expression of the c-fos gene, NIH3T3 derived FTL cells were selected as the responsive cells. A library for screening is prepared from human tissue as described above for expression in Xenopus oocytes. Plasmid DNAs from small library pools of 100 to 500 independent colonies per pool were constructed and in vitro transcribed into cRNAs. Each pool of cRNAs were injected into Xenopus laevis oocytes and cultured at 18° C. overnight. The next day, each oocyte was then cocultured on a bed of NIH3T3 derived FTL cells in a microwell and incubated at 37° C. for three hours.
The oocytes were removed and induction of c-fos messenger was measured by bDNA assay against c-fos mRNA. […] In the present experiment, a bDNA assay detected a lower concentration of library, with the ability to detect from 4000 FTL cells less than 0.01 nM of PDGFBB (PDGF β chain dimer). As previously described, administration of PDGFBB to cells, including FTL cells, induces the transcription of the c-fos gene.

[4] = test system: c-fos transcription in NIH3T3 cells; assay: Xenopus oocyte/NIH3T3 coculture, c-fos induction by bDNA assay; conditions: compared to non-stimulated NIH3T3 cells
From the text: Manual defolliculated Xenopus oocytes are excellent at expressing in vitro transcribed cRNA and its background c-fos induction activity is almost none. Taking advantage of the size of Xenopus oocytes, a coculture system using Xenopus oocytes and NIH3T3 cells was developed in microplates which allowed the detection of both diffusible and membrane-attached nondiffusible growth factors. However, it was shown that damaged oocytes produce significant c-fos induction in NIH3T3 cells. A repeatable condition was established, however, which was sensitive enough to detect PDGF c-sis activity secreted from an oocyte injected with 0.08 ng of PDGF c-sis cRNA. This sensitivity was shown allowing for detection of PDGF c-sis activity in a pool of 600 clones. Screening was then conducted of 350 pools of a mouse brain cDNA library with a diversity of an average of 150 clones per pool, and 100 pools of a Xenopus embryo library with a diversity of 80 clones per pool. Considering the biological variation between oocytes, each pool of cRNA was injected into three oocytes and subsequently yielded triplicate results.
Among these 450 pools, 61 pools were initially found positive. After multiple repeated experiments, 14 remained moderately positive. […] The nucleotide and translated protein sequence for clone 16.1 was determined, and is represented in SEQ ID NO. […]

Molecule	minimum concentration detected by luciferase assay [1]	EC50 [2]	concentration detectable by bDNA assay against luciferase mRNA [3]	concentration detectable by bDNA assay against c-fos mRNA (c-fos mRNA in FTL cells; 4000 FTL cells)	concentration inducing c-fos mRNA detected by bDNA assay (c-fos mRNA in FTL cells; as restated in Example 9 from Example 8)	induction of c-fos transcription [4]	induction of c-fos transcription ([4]; listed as SEQ ID NO. 2)
PDGFBB: PDGF β chain dimer	1 nM	1 nM	less than 0.01 nM	less than 0.01 nM	less than 0.01 ηM		
B1						5 fold	about 5 fold
